Test: Solubility analyses in simulated intestinal fluid (HPLC of supernatant; solid form by XRPD)
Assay type: physicochemical
Conditions: simulated intestinal fluid (pH 6.8); for XRPD (solid form): room temp.; for C, mg/mL Control: room temperature, VX-950 equivalents
Method: An aliquot of the sample was placed in a tube and then an aqueous medium was added. At set time points, an aliquot of supernatant was withdrawn, filtered through 0.45 PTFE micron filter (Millex, LCR, Millipore) and processed for high performance liquid chromatography (HPLC) analysis (Agilent 1100; Palo Alto, Calif., USA). The system was equipped with an autosampler set at 25° C. For the sample handling, an aliquot of the sample was diluted with acetonitrile at 1 to 1 by v/v ratio. The samples were run isocratically with the detector set at 270 nm. The column was XTerra® Phenyl column 150 mm×4.6 mm, 3.5 μm Particle Size (P/N 186001144) (Waters, Milford, Mass., USA). The mobile phase was potassium phosphate buffer (10 mM, pH=7.0):methanol at 60:40 (v/v) ratio. The run was done at the flow-rate of 1 mL/min and was completed within 15 min.

## CCC[C@H](NC(=O)[C@@H]1[C@H]2CCC[C@H]2CN1C(=O)[C@@H](NC(=O)[C@@H](NC(=O)c1cnccn1)C1CCCCC1)C(C)(C)C)C(=O)C(=O)NC1CC1 [VX-950 alone]
24 hours
  XRPD (solid form): Crystallizes by 24 hour
Up to 2 hours
  XRPD (solid form): Amorphous (up to 2 hours
24 hour
  C, mg/mL Control: Not
Line with XRPD 'by about 4 hours'
  C, mg/mL Control: 0.0183 mg/mL
Line with XRPD 'up to 2 hours'
  C, mg/mL Control: 0.025 mg/mL

— patent US8372846B2, “Co-crystals and pharmaceutical compositions comprising the same” (Vertex Pharmaceuticals Incorporated, priority 2006, dated 2013)
